# From patent US9308198B2, “Treatment, prevention, and reversal of alcohol-induced brain disease” (priority 2006, dated 2016)
# Experiments:
# [1] = test system: insulin receptor; assay: Equilibrium binding assay, primary cerebellar neuron cultures; format: cell-based, rat
# Method: (§1) Fresh frozen tissue (˜100 mg) was homogenized in 5 volumes of NP-40 lysis buffer (50 mM Tris-HCl, pH 7.5, 1% NP-40, 150 mM NaCl, 1 mM EDTA, 2 mM EGTA) containing protease inhibitors (1 mM PMSF, 0.1 mM TPCK, 1 μg/ml aprotinin, 1 μg/ml pepstatin A, 0.5 μg/ml leupeptin, 1 mM NaF, 1 mM Na4P2O7). Protein concentrations were determined using the bicinchoninic acid (BCA) assay (Pierce, Rockford, Ill.). Exploratory studies determined the amounts of protein and concentrations of radiolabeled ligand required to achieve 20% specific binding. Insulin receptor binding assays were performed using 100 μg protein. IGF-I binding assays required 25 μg protein per sample, and IGF-II receptor binding assays were optimized using 10 μg protein. Competitive equilibrium binding assays were used to assess growth factor binding in relation to ethanol exposure. For total binding, duplicate individual protein samples were incubated in 100 μl reactions containing binding buffer (100 mM HEPES, pH 8.0, 118 mM NaCl, 1.2 mM MgSO4, 8.8 mM dextrose, 5 mM KCl, 1% bovine serum albumin) and 100 nCi/ml of [^125I] (2000 Ci/mmol; […]) insulin, IGF-I, or IGF-II. To measure non-specific binding, replicate samples were identically prepared but with the addition of 0.1 μM unlabeled (cold) ligand.
# (§2) All reactions were performed in 1.5 ml Eppendorff tubes, and the incubations were performed at 4° C. for 16 hours with gentle platform agitation. Bound radiolabeled tracer was then precipitated by adding 500 μl of 0.15% bovine gamma globulin (prepared in 100 mM Tris-HCl, pH 8.0) followed by 400 μl 37.5% polyethylene glycol 8000 (PEG-8000; prepared in 100 mM Tris-HCl, pH 8.0) to each tube. The samples were thoroughly mixed by vortexing, and then incubated on ice for at least 2 hours. The precipitates were collected by centrifuging the samples at 15,000×g for 5 minutes at room temperature. The supernatant fraction, which contained unbound (free) ligand, was transferred in its entirety to a Gamma counting tube (Sarstedt, Newton, N.C.). The Eppendorff tube tip containing the pellet was cut and released directly into a separate Gamma counting tube. The samples were counted for 1 minute in an LKB CompuGamma CS Gamma counter. Specific binding was calculated by subtracting fmol of non-specific binding, i.e., amount bound in the presence of cold ligand, from the total fmol bound (absence of unlabeled competitive ligand). The results were analyzed and plotted using the GraphPad Prism 4 software (GraphPad Software, Inc., San Diego, Calif.).
# (§3) In vitro experiments were used to examine the effects of ethanol on receptor binding and choline acetyltransferase (ChAT) and acetylcholinesterase (AChE) expression in cerebellar neurons. Primary neuronal cultures were generated with postnatal day 8 rat pup cerebellar tissue (Nikolic et al. Genes Dev. 10:816 (1996)). The cultures were maintained with Dulbecco's modified Eagle's medium (DMEM) supplemented with 5% fetal calf serum, 4 mM glutamine, 100 μM non-essential amino acid mixture (Gibco-BRL, Grand Island, N.Y.), 25 mM KCl, and 9 g/L glucose. […] Alcohol Clin. Exp. Res. 24:716 (2000); Banerjee et al. Alcohol Clin. Exp. Res. 22:2093 (1998)). Control cultures were identically treated but with water added to the reservoir tray. The chambers were flushed with gas containing 75% nitrogen, 20% oxygen, and 5% carbon dioxide. […] Alternatively, the cells were serum-starved for 12 hours and then stimulated with 10 nM insulin, […], 25 nM IGF-II, or vehicle for 16 hours, and RNA was harvested to measure ChAT and AChE expression.
# [2] = test system: IGF-II receptor; assay: as above; format: cell-based, rat
# Method: as §1, §2, §3
# [3] = 50 mM ethanol for 96 hours vs control cultures
# [4] = 10 mM for 3 hours, control and ethanol-exposed cultures, relative to vehicle-treated cells
compound,measurement,setting,value
CC(C)CCC[C@@H](C)[C@H]1CC[C@H]2[C@@H]3CC=C4C[C@@H](O)CC[C@]4(C)[C@H]3CC[C@]12C [cholesterol],insulin receptor binding,"[1]; 10 mM for 3 hours, control cells",no significant effect
same,insulin-receptor binding,"[1]; 10 mM for 3 hours, ethanol-treated cells",enhanced
same,IGF-II receptor binding,"[2]; 10 mM for 3 hours, control cerebellar neurons",significantly impaired
CCO [ethanol],insulin receptor binding,[1]; [3],significantly reduced
same,IGF-II receptor binding,[2]; [3],significantly reduced
Methyl-β-cyclodextrin [MβCD],insulin receptor binding,[1]; [4],significantly inhibited
same,IGF-II receptor binding,[2]; [4],significantly inhibited
